No end group written: not given here.
Columns and labels:
Assay type in all cases: cell-based, human
[1] = system: Miltenberger Antibody Positive Panel; experiment: Reactivity of modified RBCs against the Miltenberger Antibody Positive Panel; set-up: key to score vs panel 15 TAP2 / score vs panel 4 T7202 / score vs panel 8 T5896 / score vs panel 2 T217 / score vs panel 3 T165 / score vs panel 14 TAP1 / score vs panel 10 Mia / score vs panel 11 Mur / score vs panel 12 Gam / score vs panel 6 T6025 / score vs panel 7 T8445 / score vs panel 9 MIII / score vs panel 13 BoxH / reactivity with Panel Serum #7 (T8445) / agglutination score, Panel Serum #7 (T8445): 0 or ‘−’ no agglutination; 0 or ‘−’ no agglutination; 1+ or 3=very weak agglutination; 1+ or 3=very weak agglutination; 2+ or 5=weak agglutination; 2+ or 5=weak agglutination; 3+ or 8=moderate strong agglutination; 3+ or 8=moderate strong agglutination; 4+ or 10/12=strong agglutination; 4+ or 10/12=strong agglutination; 4+ or 10/12=strong agglutination; conditions: for agglutination score, Panel Serum #7 (T8445): cells modified at 50 μg/ml, 2 hour 37° C., BioVue AHG cards; for reactivity with Panel Serum #7 (T8445): construct 50 μg/ml (2 hours, 37° C.)
Method: (§1) Red blood cells are modified by mixing 1 part by volume of washed packed red blood cells with 1 part by volume of peptide-lipid construct dispersed at a concentration of 10 to 1000 pg/ml in cell media (Celpresol™).
(§2) The suspensions are either: • 1. incubated for 2 hours at 37° C. before being washed and suspended in a cell medium for serological analysis at a concentration of 0.8 to 3% (Method 1); or • 2. incubated for 3 to 4 hours at room temperature (circa 25° C.) followed by 18 hours at 4° C. before being washed and suspended in a cell medium for serological analysis at a concentration of 0.8 to 3% (Method 2).
(§3) Serological reactions are graded or scored by either of two established systems (0 or ‘−’ no agglutination, 1+ or 3=very weak agglutination, 2+ or 5=weak agglutination, 3+ or 8=moderate strong agglutination, 4+ or 10/12=strong agglutination)
(§4) Serological platforms used are Tube (addition of reagents and reactants into plastic or glass serology tubes and after appropriate incubations, washing and centrifugation observing reactions macroscopically by eye and a 10× magnification eyepiece and scoring) and BioVue™ (addition of reactants into cassettes containing beads (including some reactants) and after appropriate incubations and centrifugation observing the reaction patterns trapped within the Gel matrix). BioVue is the serological column agglutination platform of Ortho-Clinical Diagnostics. Diamed is the serological column agglutination platform of Diamed AG.

[2] = system: sera reactive with modified RBCs; experiment: Neutralisation of reactive sera with free peptide, retested against modified RBCs (BioVue); set-up: key: 0 or ‘−’ no agglutination; 0 or ‘−’ no agglutination; 1+ or 3=very weak agglutination; 1+ or 3=very weak agglutination; 2+ or 5=weak agglutination; 2+ or 5=weak agglutination; 3+ or 8=moderate strong agglutination; 3+ or 8=moderate strong agglutination; 4+ or 10/12=strong agglutination; 4+ or 10/12=strong agglutination; 4+ or 10/12=strong agglutination; conditions: for Post-neutralisation serology, PAC74 / Post-neutralisation serology, TAP1: cells modified with M22
Source text: Optionally, where F is a peptide, the method includes the preliminary step of: • Adding an amount of the peptide to the sample of the serum; where the amount of the peptide is sufficient to neutralize non-specific agglutination or confirm specificity of the reactive antibody.

antibody negative serums = experiment: False positive reactions of modified RBCs with antibody negative serums/plasma; set-up: key to Reaction score BioVue AHG, PAC samples 1-46, 49, 50, 52, 53 / Reaction score BioVue AHG, PAC sample 47 / Reaction score BioVue AHG, PAC sample 48 / Reaction score BioVue AHG, PAC sample 51 / agglutination score, T series serum 2 / agglutination score, T series serum 42 / agglutination score, T series serum 63 / agglutination score, T series serum 62 / agglutination score, T series serum 7 / agglutination score, T series serum 20 / agglutination score, T series serum 48 / agglutination score, T series serum 22 / agglutination score, T series serum 39 / agglutination score, T series serum 23 / agglutination score, T series serum 30 / agglutination score, T series serum 4 / agglutination score, T series serum 31 / agglutination score, T series serum 44 / agglutination score, T series serum 61 / agglutination score, T series serum 18 / agglutination score, T series serum 21 / agglutination score, T series serum 28 / agglutination score, T series serum 55 / agglutination score, false positive serum T18 / agglutination score, false positive serum T21 / agglutination score, false positive serum T28 / agglutination score, false positive serum T55 / agglutination score, false positive serum T78 / agglutination score, false positive serum T92: 0 or ‘−’ no agglutination; 0 or ‘−’ no agglutination; 1+ or 3=very weak agglutination; 1+ or 3=very weak agglutination; 2+ or 5=weak agglutination; 2+ or 5=weak agglutination; 3+ or 8=moderate strong agglutination; 3+ or 8=moderate strong agglutination; 4+ or 10/12=strong agglutination; 4+ or 10/12=strong agglutination; 4+ or 10/12=strong agglutination
[3] = system: Miltenberger antibody positive sera; experiment: BioVue AHG card column agglutination serology of modified red blood cells; set-up: key: 0 or ‘−’ no agglutination; 0 or ‘−’ no agglutination; 1+ or 3=very weak agglutination; 1+ or 3=very weak agglutination; 2+ or 5=weak agglutination; 2+ or 5=weak agglutination; 3+ or 8=moderate strong agglutination; 3+ or 8=moderate strong agglutination; 4+ or 10/12=strong agglutination; 4+ or 10/12=strong agglutination; 4+ or 10/12=strong agglutination; conditions: construct 50 μg/ml
Method: as §1, §2, §3, §4

[4] = cells modified at 500 μg/ml (Method 1), BioVue cards
[5] = serum neutralised with peptide SSQTNDKHKRDTY (10 μL of 1 mg/ml to 50 μL, 30 minutes 37° C.), BioVue cards
[6] = 40 μl plasma + 10 μl neutraliser 1.0 mg/ml, 30 minutes 37° C.
[7] = 40 μl plasma + 10 μl neutraliser 1.0 mg/ml, 30 minutes 37° C., head: cells modified with the peptide-lipid construct M22 (title: M28)
[8] = cells modified at 50 μg/ml, 2 hour 37° C., BioVue AHG cards
[9] = larger series = 102, cells modified at 50 μg/ml, 2 hour 37° C., BioVue AHG cards
[10] = blood donor plasma, construct 50 μg/ml (2 hours, 37° C.)

Substance: M13: DOPE peptide-lipid construct: MUTK peptide SSQTNDKHKRDTY, leader c (Cys), spacer PEG6 (SSQTNDKHKRDTYC; also: DOPE peptide-lipid construct via leader Cys, spacer PEG6)
- score vs panel 2 T217 ([1]; Table 8, construct 250 μg/ml): 8
- score vs panel 3 T165 ([1]; Table 8, construct 250 μg/ml): 0
- score vs panel 4 T7202 ([1]; Table 8, construct 250 μg/ml): 8
- score vs panel 6 T6025 ([1]; Table 8, construct 250 μg/ml): 8
- score vs panel 7 T8445 ([1]; Table 8, construct 250 μg/ml): 0
- score vs panel 8 T5896 ([1]; Table 8, construct 250 μg/ml): 3
- score vs panel 9 MIII ([1]; Table 8, construct 250 μg/ml): 0
- score vs panel 10 Mia ([1]; Table 8, construct 250 μg/ml): 0
- score vs panel 11 Mur ([1]; Table 8, construct 250 μg/ml): 0
- score vs panel 12 Gam ([1]; Table 8, construct 250 μg/ml): 0
- score vs panel 13 BoxH ([1]; Table 8, construct 250 μg/ml): 8
- agglutination score, serum #3, serum alone [2, 4]: 8
- agglutination score, serum #34, serum alone [2, 4]: 8
- agglutination score, serum #37, serum alone [2, 4]: 8
- agglutination score, serum #42, serum alone [2, 4]: 8
- agglutination score, serum #3, serum + peptide [2, 5]: 0
- agglutination score, serum #34, serum + peptide [2, 5]: 0
- agglutination score, serum #37, serum + peptide [2, 5]: 0
- agglutination score, serum #42, serum + peptide [2, 5]: 0

Substance: M22 peptide (SQTNDKHKRDC)
- Post-neutralisation serology, PAC74 [2, 6]: 8
- Post-neutralisation serology, PAC70 [2, 7]: 8
- Post-neutralisation serology, TAP2 [2, 7]: 3

Substance: M28 peptide (TYPAHTANEC)
- Post-neutralisation serology, PAC74 [2, 6]: 8
- Post-neutralisation serology, TAP1 [2, 6]: 8
- Post-neutralisation serology, TAP2 [2, 7]: 8

Substance: M30: DOPE peptide-lipid construct: Mur peptide DTYPAHTANE, leader c, spacer CMG(2) (DTYPAHTANEC; also: DOPE peptide-lipid construct via leader Cys, spacer CMG(2))
- score vs panel 2 T217 ([1]; Table 9, construct 50 μg/ml): 0
- score vs panel 4 T7202 ([1]; Table 9, construct 50 μg/ml): 10
- score vs panel 7 T8445 ([1]; Table 9, construct 50 μg/ml): 8
- score vs panel 8 T5896 ([1]; Table 9, construct 50 μg/ml): 0
- score vs panel 15 TAP2 ([1]; Table 9, construct 50 μg/ml): 8
- agglutination score, Panel Serum #7 (T8445) [1]: 8
- reactivity with Panel Serum #7 (T8445) [1]: 8
- % positive (antibody negative serums; T series reactives (n = 58), BioVue AHG cards): 9%
- agglutination score, T series serum 2 (antibody negative serums; [8]): 10
- agglutination score, T series serum 4 (antibody negative serums; [8]): 8
- agglutination score, T series serum 7 (antibody negative serums; [8]): 0
- agglutination score, T series serum 18 (antibody negative serums; [8]): 0
- agglutination score, T series serum 20 (antibody negative serums; [8]): 0
- agglutination score, T series serum 21 (antibody negative serums; [8]): 0
- agglutination score, T series serum 22 (antibody negative serums; [8]): 0
- agglutination score, T series serum 23 (antibody negative serums; [8]): 0
- agglutination score, T series serum 28 (antibody negative serums; [8]): 0
- agglutination score, T series serum 30 (antibody negative serums; [8]): 0
- agglutination score, T series serum 31 (antibody negative serums; [8]): 8
- agglutination score, T series serum 39 (antibody negative serums; [8]): 0
- agglutination score, T series serum 42 (antibody negative serums; [8]): 0
- agglutination score, T series serum 44 (antibody negative serums; [8]): 10
- agglutination score, T series serum 48 (antibody negative serums; [8]): 0
- agglutination score, T series serum 55 (antibody negative serums; [8]): 0
- agglutination score, T series serum 61 (antibody negative serums; [8]): 10
- agglutination score, T series serum 62 (antibody negative serums; [8]): 0
- agglutination score, T series serum 63 (antibody negative serums; [8]): 0

Substance: M31: DOPE peptide-lipid construct: Mur peptide YPAHTANEVS, leader c, spacer CMG(2) (YPAHTANEVSC; also: DOPE peptide-lipid construct via leader Cys, spacer CMG(2))
- score vs panel 2 T217 ([1]; Table 9, construct 50 μg/ml): 0
- score vs panel 4 T7202 ([1]; Table 9, construct 50 μg/ml): 10
- score vs panel 7 T8445 ([1]; Table 9, construct 50 μg/ml): 8
- score vs panel 8 T5896 ([1]; Table 9, construct 50 μg/ml): 0
- score vs panel 15 TAP2 ([1]; Table 9, construct 50 μg/ml): 0
- agglutination score, Panel Serum #7 (T8445) [1]: 8
- reactivity with Panel Serum #7 (T8445) [1]: 8
- agglutination score, false positive serum T21 (antibody negative serums; [9]): 10
- agglutination score, false positive serum T28 (antibody negative serums; [9]): 12
- agglutination score, false positive serum T78 (antibody negative serums; [9]): 8
- agglutination score, false positive serum T92 (antibody negative serums; [9]): 12

Substance: M40: DOPE peptide-lipid construct: Hil peptide EEETGETGQL, leader c, spacer CMG(2) (EEETGETGQLC; also: DOPE peptide-lipid construct via leader Cys, spacer CMG(2))
- BioVue score vs TAP1 [3]: 0
- BioVue score vs positive sample 2 T217 (T) [3]: 0
- BioVue score vs positive sample 3 T165 (Mur) [3]: 0
- BioVue score vs positive sample 4 T7202 (M) [3]: 0
- BioVue score vs positive sample 8 T5896 (M + K + Mur) [3]: 0
- Reaction score BioVue AHG, PAC sample 47 (antibody negative serums; [10]): 0
- Reaction score BioVue AHG, PAC sample 48 (antibody negative serums; [10]): 0
- Reaction score BioVue AHG, PAC sample 51 (antibody negative serums; [10]): 0
- Reaction score BioVue AHG, PAC samples 1-46, 49, 50, 52, 53 (antibody negative serums; [10]): 0
- % False Positives (antibody negative serums; panel of blood donor plasma samples (PAC), BioVue AHG, construct 50 μg/ml): 0%

Substance: M41: DOPE peptide-lipid construct: Hil peptide ETGETGQLVH, leader c, spacer CMG(2) (ETGETGQLVHC; also: DOPE peptide-lipid construct via leader Cys, spacer CMG(2))
- BioVue score vs TAP1 [3]: 0
- BioVue score vs positive sample 2 T217 (T) [3]: 0
- BioVue score vs positive sample 3 T165 (Mur) [3]: 0
- BioVue score vs positive sample 4 T7202 (M) [3]: 0
- BioVue score vs positive sample 8 T5896 (M + K + Mur) [3]: 0

Substance: VMYASSG?
- Post-neutralisation serology, PAC74 [2, 6]: 8
- Post-neutralisation serology, TAP1 [2, 6]: 8
- Post-neutralisation serology, PAC70 [2, 7]: 8
- Post-neutralisation serology, PAC71 [2, 7]: 5
- Post-neutralisation serology, PAC72 [2, 7]: 5
- Post-neutralisation serology, TAP2 [2, 7]: 8

Reference: US10919941B2, “Functional lipid constructs” (KODE BIOTECH LIMITED, priority 2007, dated 2021)
